According to patent US20220323406A1, “METHODS AND COMPOSITIONS FOR DIFFERENTIATING STEM CELLS” (Massachusetts Institute of Technology, priority 2019, published 2022):

How the values were obtained:
[1] = system: ENR+CD organoids (ISC to Paneth cell differentiation); experiment: Primary screen: basal (non-stimulated) lysozyme secretion LYZ.NS, 2.5-D 384-well ENR+CD organoid differentiation; format: cell-based, mouse; conditions: primary screen; for Dose.FC.LYZ.NS: FC relative to plate median; for Z.LYZ.NS: standard z score
Excerpt: (§1) High-throughput screening.

[2] = system: ENR+CD organoids (ISC to Paneth cell differentiation); experiment: Primary screen: CCh-stimulated lysozyme secretion LYZ.S, 2.5-D 384-well ENR+CD organoid differentiation; format: cell-based, mouse; conditions: primary screen, FC relative to plate median
Excerpt: as §1

ENR+CD organoids = experiment: Primary screen: ATP (CellTiter-Glo 3D, CTG) cell number/viability, 2.5-D 384-well ENR+CD organoids; conditions: primary screen; for Dose.FC.CTG: FC relative to plate median; for Z.CTG: standard z score;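 on all read-outs here: compounds given at plating and again on day 3 over a 6-day differentiation from ENR+CV stem-cell-enriched precursors, ATP measured on day 6, plate median as control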

SMILES | Dose.FC.LYZ.NS ([1]; dose 0.08 uM) | Z.LYZ.NS ([1]; dose 0.08 uM) | Dose.FC.LYZ.NS ([1]; dose 0.40 uM) | Z.LYZ.NS ([1]; dose 0.40 uM) | Dose.FC.LYZ.NS ([1]; dose 2.00 uM) | Z.LYZ.NS ([1]; dose 2.00 uM) | Dose.FC.LYZ.NS ([1]; dose 10.00 uM) | Z.LYZ.NS ([1]; dose 10.00 uM) | Dose.FC.LYZ.S ([2]; dose 0.08 uM) | Dose.FC.LYZ.S ([2]; dose 0.40 uM) | Dose.FC.LYZ.S ([2]; dose 2.00 uM) | Dose.FC.LYZ.S ([2]; dose 10.00 uM) | Dose.FC.CTG (ENR+CD organoids; dose 0.08 uM) | Dose.FC.CTG (ENR+CD organoids; dose 0.40 uM) | Dose.FC.CTG (ENR+CD organoids; dose 2.00 uM) | Dose.FC.CTG (ENR+CD organoids; dose 10.00 uM) | Z.CTG (ENR+CD organoids; dose 0.08 uM) | Z.CTG (ENR+CD organoids; dose 0.40 uM) | Z.CTG (ENR+CD organoids; dose 2.00 uM) | Z.CTG (ENR+CD organoids; dose 10.00 uM)
CN1CCN(c2nc(C3=C(c4c[nH]c5ccccc45)C(=O)NC3=O)c3ccccc3n2)CC1 [Sotrastaurin] | 0.193 log2 fold change | 1.678 | −0.065 log2 fold change | −0.567 | 0.014 log2 fold change | 0.125 | −0.126 log2 fold change | −1.101 | 0.097 log2 fold change | −0.043 log2 fold change | −0.085 log2 fold change | −0.164 log2 fold change | 0.010 log2 fold change | −0.120 log2 fold change | −0.272 log2 fold change | −0.242 log2 fold change |  |  |  | 
O=[N+]([O-])c1ccc2c(c1)S(=O)(=O)C=C2 [Stattic] | 0.130 log2 fold change | 1.131 | 0.022 log2 fold change | 0.189 | 0.147 log2 fold change | 1.276 | −0.021 log2 fold change | −0.186 | 0.150 log2 fold change | 0.033 log2 fold change | 0.082 log2 fold change | −0.019 log2 fold change | −0.080 log2 fold change | −0.005 log2 fold change | 0.033 log2 fold change | −0.025 log2 fold change | −0.191 | −0.011 | 0.078 | −0.060
Cc1cn([C@H]2C=C[C@@H](CO)O2)c(=O)[nH]c1=O [Stavudine (d4T)] | 0.071 log2 fold change | 0.620 | 0.003 log2 fold change | 0.027 | 0.009 log2 fold change | 0.074 | −0.095 log2 fold change | −0.828 | 0.134 log2 fold change | 0.001 log2 fold change | −0.003 log2 fold change | −0.120 log2 fold change | 0.095 log2 fold change | 0.147 log2 fold change | 0.075 log2 fold change | −0.075 log2 fold change | 0.226 | 0.351 | 0.179 | −0.179
Cc1ccc(-n2nccn2)c(C(=O)N2CCN(c3nc4cc(Cl)ccc4o3)CC[C@H]2C)c1 [Suvorexant (MK-4305)] | 0.204 log2 fold change | 1.775 | 0.123 log2 fold change | 1.073 | 0.123 log2 fold change | 1.073 | 0.077 log2 fold change | 0.670 | 0.186 log2 fold change | 0.142 log2 fold change | 0.101 log2 fold change | 0.131 log2 fold change | 0.192 log2 fold change | 0.255 log2 fold change | 0.375 log2 fold change | 0.250 log2 fold change | 0.458 | 0.609 | 0.895 | 0.597
O=C(Nc1ccncc1)c1cc([N+](=O)[O-])ccc1Cl [T0070907] | 0.010 log2 fold change | 0.084 | −0.003 log2 fold change | −0.029 | 0.043 log2 fold change | 0.373 | −0.218 log2 fold change | −1.897 | −0.005 log2 fold change | −0.001 log2 fold change | 0.081 log2 fold change | −0.312 log2 fold change | 0.112 log2 fold change | 0.026 log2 fold change | 0.050 log2 fold change | −0.756 log2 fold change | 0.267 | 0.062 | 0.119 | −1.806
O=S(=O)(c1ccccc1)N(CC(F)(F)F)c1ccc(C(O)(C(F)(F)F)C(F)(F)F)cc1 [T0901317] | 0.086 log2 fold change | 0.748 | 0.042 log2 fold change | 0.369 | 0.074 log2 fold change | 0.644 | −0.015 log2 fold change | −0.130 | 0.111 log2 fold change | 0.077 log2 fold change | 0.070 log2 fold change | −0.034 log2 fold change | 0.047 log2 fold change | 0.178 log2 fold change | 0.096 log2 fold change | 0.114 log2 fold change |  |  |  | 
CNC(=O)c1ccccc1Nc1nc(Nc2ccc(N3CCOCC3)cc2OC)ncc1Cl [TAE226 (NVP-TAE226)] | −0.256 log2 fold change | −2.226 | −0.304 log2 fold change | −2.650 | −0.323 log2 fold change | −2.813 | −0.292 log2 fold change | −2.545 | −0.333 log2 fold change | −0.376 log2 fold change | −0.400 log2 fold change | −0.426 log2 fold change | −0.472 log2 fold change | −1.126 log2 fold change | −1.284 log2 fold change | −0.989 log2 fold change | −1.127 | −2.689 | −3.068 | −2.363
CNC(=O)c1ccc2cc([C@@]3(O)CCn4cncc43)ccc2c1 [TAK-700 (Orteronel)] | 0.176 log2 fold change | 1.535 | 0.182 log2 fold change | 1.585 | 0.121 log2 fold change | 1.058 | −0.002 log2 fold change | −0.018 | 0.113 log2 fold change | 0.090 log2 fold change | 0.093 log2 fold change | 0.032 log2 fold change | −0.276 log2 fold change | −0.024 log2 fold change | −0.084 log2 fold change | 0.092 log2 fold change | −0.659 | −0.056 | −0.202 | 0.219
Cc1cc(OCCCS(C)(=O)=O)cc(C)c1-c1cccc(COc2ccc3c(c2)OC[C@H]3CC(=O)O)c1 [TAK-875] | 0.096 log2 fold change | 0.839 | 0.023 log2 fold change | 0.199 | −0.043 log2 fold change | −0.378 | −0.138 log2 fold change | −1.199 | 0.212 log2 fold change | 0.014 log2 fold change | −0.031 log2 fold change | −0.060 log2 fold change | 0.239 log2 fold change | −0.164 log2 fold change | −0.157 log2 fold change | −0.291 log2 fold change |  |  |  | 
O=C1CC(=O)c2c(Cl)c(Cl)c(Cl)c(Cl)c21 [TCID] | 0.049 log2 fold change | 0.431 | −0.018 log2 fold change | −0.155 | 0.066 log2 fold change | 0.578 | −0.018 log2 fold change | −0.159 | 0.062 log2 fold change | 0.017 log2 fold change | −0.066 log2 fold change | −0.054 log2 fold change | −0.136 log2 fold change | −0.007 log2 fold change | −0.217 log2 fold change | −0.228 log2 fold change | −0.325 | −0.017 | −0.517 | −0.545
COc1ccc(C(=O)Nc2sc3c(c2C(N)=O)CCCC3)cc1OC [TCS 359] | 0.085 log2 fold change | 0.742 | 0.058 log2 fold change | 0.502 | 0.018 log2 fold change | 0.156 | −0.008 log2 fold change | −0.072 | 0.098 log2 fold change | 0.069 log2 fold change | −0.006 log2 fold change | 0.026 log2 fold change | 0.150 log2 fold change | 0.250 log2 fold change | 0.050 log2 fold change | −0.089 log2 fold change | 0.358 | 0.598 | 0.119 | −0.212
